Columns and labels:
Experiment in all cases: Test of herbicidal activities (greenhouse pot method)
Assay type in all cases: in vivo
Conditions in all cases: single dose 300 g ai./h, treated before/after germination, 15 days later, greenhouse pot
Amaranthus retroflexus = test system: Amaranthus retroflexus
Summary of the method: (§1)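 Greenhouse pot test on weeds grown in mixed garden/mountain/humus soil at 15-30° C; pre- and post-emergence spray at a single dose of 300 g ai./h via automatic spraying tower (0.2 MPa). Inhibition scored after 15 days into five levels A (90-100%) to E (<50%); triplicate with blank control.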

Brassica juncea = test system: Brassica juncea
Summary of the method: as §1

Chenopodium album = test system: Chenopodium album
Summary of the method: as §1

Digiatria sanguinalis = test system: Digiatria sanguinalis
Summary of the method: as §1

Echinochloa crusgalli = test system: Echinochloa crusgalli
Summary of the method: as §1

Setaria viridis = test system: Setaria viridis
Summary of the method: as §1

Row | SMILES | inhibition at 300 g/ha (Amaranthus retroflexus; Amaranthus retroflexus, 360 h, read-out: Herbicidal activity Amaranthus retroflexus (inhibition level)) [%] | inhibition at 300 g/ha (Brassica juncea; Brassica juncea, 360 h, read-out: Herbicidal activity Brassica juncea (inhibition level)) [%] | inhibition at 300 g/ha (Chenopodium album; Chenopodium album, 360 h, read-out: Herbicidal activity Chenopodium album (inhibition level)) [%] | inhibition at 300 g/ha (Digiatria sanguinalis; 360 h, read-out: Herbicidal activity Digiatria sanguinalis (inhibition level)) [%] | inhibition at 300 g/ha (Echinochloa crusgalli; Echinochloa crus-galli, 360 h, read-out: Herbicidal activity Echinochloa crusgalli (inhibition level)) [%] | inhibition at 300 g/ha (Setaria viridis; Setaria viridis, 360 h, read-out: Herbicidal activity Setaria viridis (inhibition level)) [%] | Herbicidal activity Amaranthus retroflexus (inhibition level) (Amaranthus retroflexus) | Herbicidal activity Brassica juncea (inhibition level) (Brassica juncea) | Herbicidal activity Chenopodium album (inhibition level) (Chenopodium album) | Herbicidal activity Digiatria sanguinalis (inhibition level) (Digiatria sanguinalis) | Herbicidal activity Echinochloa crusgalli (inhibition level) (Echinochloa crusgalli) | Herbicidal activity Setaria viridis (inhibition level) (Setaria viridis)
1 | CCCS(=O)(=O)c1nc2cc(-n3nc(C)n(C)c3=O)c(F)cc2s1 [Compound 48, 1-(6-fluoro-2-(propylsulfonyl)benzo[d]thiazol-5-yl)-3,4-dimethyl-1H-1,2,4-triazol-5(4H)-one] | 80 to 90 | 80 to 90 | 50 to 60 | 80 to 90 | 80 to 90 | 60 to 80 | – | – | – | – | – | –
2 | Cc1nn(-c2cc3nc(S(=O)(=O)Cc4ccc(F)cc4F)sc3cc2F)c(=O)n1C(F)F [Compound 49] | – | – | – | – | – | – | A (90 ≦ A ≦ 100%) | A (90 ≦ A ≦ 100%) | B (80 ≦ B < 90%) | C (60 ≦ C < 80%) | A (90 ≦ A ≦ 100%) | D (50 ≦ D < 60%)
3 | Cc1nn(-c2cc3nc(S(=O)(=O)Cc4cccc([N+](=O)[O-])c4)sc3cc2F)c(=O)n1C(F)F [Compound 50] | – | – | – | – | – | – | B (80 ≦ B < 90%) | C (60 ≦ C < 80%) | D (50 ≦ D < 60%) | A (90 ≦ A ≦ 100%) | B (80 ≦ B < 90%) | B (80 ≦ B < 90%)
4 | Cc1nn(-c2cc3nc(S(=O)(=O)Cc4ccccc4)sc3cc2F)c(=O)n1C(F)F [Compound 51] | – | – | – | – | – | – | A (90 ≦ A ≦ 100%) | B (80 ≦ B < 90%) | B (80 ≦ B < 90%) | A (90 ≦ A ≦ 100%) | C (60 ≦ C < 80%) | A (90 ≦ A ≦ 100%)
5 | Cc1nn(-c2cc3nc(S(=O)(=O)Cc4ccccc4F)sc3cc2F)c(=O)n1C(F)F [Compound 52] | – | – | – | – | – | – | C (60 ≦ C < 80%) | B (80 ≦ B < 90%) | B (80 ≦ B < 90%) | A (90 ≦ A ≦ 100%) | E (E < 50%) | B (80 ≦ B < 90%)
6 | Cc1nn(-c2cc3nc(S(=O)(=O)Cc4cccc(Cl)c4)sc3cc2F)c(=O)n1C(F)F [Compound 53] | – | – | – | – | – | – | B (80 ≦ B < 90%) | A (90 ≦ A ≦ 100%) | B (80 ≦ B < 90%) | B (80 ≦ B < 90%) | C (60 ≦ C < 80%) | D (50 ≦ D < 60%)
7 | CCOC(=O)CS(=O)(=O)c1nc2cc(-n3nc(C)n(C(F)F)c3=O)c(Br)cc2s1 [Compound 54] | – | – | – | – | – | – | B (80 ≦ B < 90%) | A (90 ≦ A ≦ 100%) | C (60 ≦ C < 80%) | C (60 ≦ C < 80%) | B (80 ≦ B < 90%) | D (50 ≦ D < 60%)
8 | CCCCCCS(=O)(=O)c1nc2cc(-n3nc(C)n(C(F)F)c3=O)c(F)cc2s1 [Compound 55] | – | – | – | – | – | – | C (60 ≦ C < 80%) | C (60 ≦ C < 80%) | A (90 ≦ A ≦ 100%) | B (80 ≦ B < 90%) | E (E < 50%) | B (80 ≦ B < 90%)
9 | CCS(=O)(=O)c1nc2cc(-n3nc(C)n(C(F)F)c3=O)c(F)cc2s1 [Compound 56] | – | – | – | – | – | – | A (90 ≦ A ≦ 100%) | A (90 ≦ A ≦ 100%) | C (60 ≦ C < 80%) | D (50 ≦ D < 60%) | B (80 ≦ B < 90%) | D (50 ≦ D < 60%)
10 | CCCCCCS(=O)(=O)c1nc2cc(-n3nc(C)n(C(F)F)c3=O)c(Cl)cc2s1 [Compound 57] | – | – | – | – | – | – | A (90 ≦ A ≦ 100%) | B (80 ≦ B < 90%) | C (60 ≦ C < 80%) | A (90 ≦ A ≦ 100%) | D (50 ≦ D < 60%) | D (50 ≦ D < 60%)
11 | CCS(=O)(=O)c1nc2cc(-n3nc(C)n(C(F)F)c3=O)c(Cl)cc2s1 [Compound 58] | – | – | – | – | – | – | A (90 ≦ A ≦ 100%) | B (80 ≦ B < 90%) | A (90 ≦ A ≦ 100%) | A (90 ≦ A ≦ 100%) | B (80 ≦ B < 90%) | C (60 ≦ C < 80%)
12 | CCOC(=O)C(C)S(=O)(=O)c1nc2cc(-n3nc(C)n(C(F)F)c3=O)c(Br)cc2s1 (stereo not drawn) [Compound 59] | – | – | – | – | – | – | A (90 ≦ A ≦ 100%) | A (90 ≦ A ≦ 100%) | B (80 ≦ B < 90%) | C (60 ≦ C < 80%) | D (50 ≦ D < 60%) | C (60 ≦ C < 80%)
13 | C=CCS(=O)(=O)c1nc2cc(-n3nc(C)n(C(F)F)c3=O)c(Br)cc2s1 [Compound 60] | – | – | – | – | – | – | A (90 ≦ A ≦ 100%) | A (90 ≦ A ≦ 100%) | B (80 ≦ B < 90%) | A (90 ≦ A ≦ 100%) | B (80 ≦ B < 90%) | C (60 ≦ C < 80%)
14 | CCOC(=O)C(C)S(=O)(=O)c1nc2cc(-n3nc(C)n(C(F)F)c3=O)c(F)cc2s1 (stereo not drawn) [Compound 61] | – | – | – | – | – | – | A (90 ≦ A ≦ 100%) | A (90 ≦ A ≦ 100%) | B (80 ≦ B < 90%) | A (90 ≦ A ≦ 100%) | C (60 ≦ C < 80%) | C (60 ≦ C < 80%)
15 | Cc1nn(-c2cc3nc(S(C)(=O)=O)sc3cc2F)c(=O)n1C(F)F [Compound 62] | – | – | – | – | – | – | C (60 ≦ C < 80%) | D (50 ≦ D < 60%) | D (50 ≦ D < 60%) | B (80 ≦ B < 90%) | A (90 ≦ A ≦ 100%) | A (90 ≦ A ≦ 100%)
16 | CCCCS(=O)(=O)c1nc2cc(-n3nc(C)n(C(F)F)c3=O)c(F)cc2s1 [Compound 63] | – | – | – | – | – | – | A (90 ≦ A ≦ 100%) | B (80 ≦ B < 90%) | A (90 ≦ A ≦ 100%) | A (90 ≦ A ≦ 100%) | B (80 ≦ B < 90%) | C (60 ≦ C < 80%)
17 | CCCS(=O)(=O)c1nc2cc(-n3nc(C)n(C(F)F)c3=O)c(F)cc2s1 [Compound 64] | – | – | – | – | – | – | B (80 ≦ B < 90%) | D (50 ≦ D < 60%) | B (80 ≦ B < 90%) | A (90 ≦ A ≦ 100%) | B (80 ≦ B < 90%) | B (80 ≦ B < 90%)
18 | CCOC(=O)CS(=O)(=O)c1nc2cc(-n3nc(C)n(C(F)F)c3=O)c(F)cc2s1 [Compound 65] | – | – | – | – | – | – | A (90 ≦ A ≦ 100%) | A (90 ≦ A ≦ 100%) | A (90 ≦ A ≦ 100%) | B (80 ≦ B < 90%) | C (60 ≦ C < 80%) | B (80 ≦ B < 90%)
19 | C=CCS(=O)(=O)c1nc2cc(-n3nc(C)n(C(F)F)c3=O)c(F)cc2s1 [Compound 66] | – | – | – | – | – | – | B (80 ≦ B < 90%) | B (80 ≦ B < 90%) | B (80 ≦ B < 90%) | B (80 ≦ B < 90%) | A (90 ≦ A ≦ 100%) | A (90 ≦ A ≦ 100%)
